In paper PMC11019538, “Biophysics-Guided Lead Discovery of HBV Capsid Assembly Modifiers” (ACS Infectious Diseases, 2024):

The molecules below were run on HBV DNA replication in HepAD38 cells (assay: HBV DNA replication inhibition assay in HepAD38 cells (7 days, PCR of supernatant DNA)). Details: HepAD38 cells, 10 µM, first round of selected compounds.
Format: cell-based, hepatitis B virus
Description: HepAD38 cells were seeded at 50,000 cells/well in collagen-coated 96-well plates. […] The experiment lasted 7 days. On day 7, total DNA was purified from the supernatant using a commercially available kit (DNeasy 96 Blood & Tissue kit, Qiagen). The HBV DNA was amplified in a polymerase chain reaction assay using LightCycler 480 II (Roche), as previously described.[63] All samples were tested in duplicate.

SMILES	HBV DNA inhibition (%) at 10 µM
CC(CC(C#N)(c1ccccc1)c1ccccc1)N1CCCCC1 (stereo not shown) [GT-2]	< 1%
CC(NC(=O)c1cccnc1)c1ccccc1 (stereo not shown) [GT-18]	< 1%
NCc1cccc(-c2ccccn2)c1 [GT-24]	< 1%
O=C(NCCn1ccnc1)c1ccccn1 [GT-26]	< 1%
Cc1ccc(CC#N)c(-c2c(CC#N)ccc(C)c2C)c1C [GT-9]	34.6%
CC(O)(c1ccccc1)C(c1ccccc1)C1CCCCN1 (stereo not shown) [GT-4]	< 1%
NCc1cccc(Oc2ccccc2)c1 [GT-21]	< 1%
NCc1ccc(N2CCC(CO)CC2)cc1 [GT-17]	< 1%
Cc1c(CCN)ccc2c1[nH]c1ccccc12 [GT-6]	27.2%
O=C(OCc1ccccc1)c1cccnc1 [GT-16]	1.7%
O=C(NCCc1ccccc1)c1cccnc1 [GT-13]	< 1%
Clc1ccccc1C=Cc1ccnc2ccccc12 [GT-3]	40.4%
NCc1ccc(-c2ccccc2F)o1 [GT-19]	< 1%
C=CC1CN2CCC1CC2C(O)c1ccnc2ccc(OC)cc12 (stereo not shown) [GT-1]	< 1%
O=C(NCc1cccnc1)C1CCNCC1 [GT-23]	< 1%
CC(N)c1ccc(-c2ccc(F)cc2)cc1 (stereo not shown) [GT-29]	< 1%
CCC(CO)Nc1nc2ccc(Cl)cc2c2ccccc12 (stereo not shown) [GT-10]	< 1%
Cc1cc(-c2ccccc2)nc(C#N)c1C#N [GT-27]	< 1%
N#CC(c1ccccc1)C(C(Cc1ccccc1)=NO)c1ccccc1 (stereo not shown) [GT-11]	< 1%

Each molecule was assayed on human peripheral blood mononuclear (PBM) cells (assay: MTT cytotoxicity, PBM cells). Details: not given.
Format: cell-based
Description: (§1) Human peripheral blood mononuclear (PBM), T lymphoblast CEM-CCRF (herein referred to as CEM cells), African green monkey kidney (Vero), or human liver carcinoma (HepG2) cells were tested via MTT assay using the CellTiter 96 Non-Radioactive Cell Proliferation (Promega) kit as previously described.[63]

SMILES	CC50
CC(CC(C#N)(c1ccccc1)c1ccccc1)N1CCCCC1 (stereo not shown) [GT-2]	85.3 µM
CC(NC(=O)c1cccnc1)c1ccccc1 (stereo not shown) [GT-18]	> 100 µM
NCc1cccc(-c2ccccn2)c1 [GT-24]	> 100 µM
O=C(NCCn1ccnc1)c1ccccn1 [GT-26]	> 100 µM
Cc1ccc(CC#N)c(-c2c(CC#N)ccc(C)c2C)c1C [GT-9]	> 100 µM
CC(O)(c1ccccc1)C(c1ccccc1)C1CCCCN1 (stereo not shown) [GT-4]	> 100 µM
NCc1cccc(Oc2ccccc2)c1 [GT-21]	> 100 µM
NCc1ccc(N2CCC(CO)CC2)cc1 [GT-17]	> 100 µM
Cc1c(CCN)ccc2c1[nH]c1ccccc12 [GT-6]	47.7 µM
O=C(OCc1ccccc1)c1cccnc1 [GT-16]	> 100 µM
O=C(NCCc1ccccc1)c1cccnc1 [GT-13]	> 100 µM
Clc1ccccc1C=Cc1ccnc2ccccc12 [GT-3]	34 µM
NCc1ccc(-c2ccccc2F)o1 [GT-19]	> 100 µM
O=C(NCc1cccnc1)C1CCNCC1 [GT-23]	> 100 µM
CC(N)c1ccc(-c2ccc(F)cc2)cc1 (stereo not shown) [GT-29]	25 µM
CCC(CO)Nc1nc2ccc(Cl)cc2c2ccccc12 (stereo not shown) [GT-10]	18.2 µM
Cc1cc(-c2ccccc2)nc(C#N)c1C#N [GT-27]	14.7 µM
N#CC(c1ccccc1)C(C(Cc1ccccc1)=NO)c1ccccc1 (stereo not shown) [GT-11]	63.9 µM

These molecules were tested on T lymphoblast CEM-CCRF (CEM) cells (assay: MTT cytotoxicity, CEM cells). Details: not given.
Format: cell-based, human
Description: as §1

SMILES	CC50
CC(CC(C#N)(c1ccccc1)c1ccccc1)N1CCCCC1 (stereo not shown) [GT-2]	16.1 µM
CC(NC(=O)c1cccnc1)c1ccccc1 (stereo not shown) [GT-18]	> 100 µM
NCc1cccc(-c2ccccn2)c1 [GT-24]	11.3 µM
O=C(NCCn1ccnc1)c1ccccn1 [GT-26]	> 100 µM
Cc1ccc(CC#N)c(-c2c(CC#N)ccc(C)c2C)c1C [GT-9]	> 100 µM
CC(O)(c1ccccc1)C(c1ccccc1)C1CCCCN1 (stereo not shown) [GT-4]	> 100 µM
NCc1cccc(Oc2ccccc2)c1 [GT-21]	18.2 µM
NCc1ccc(N2CCC(CO)CC2)cc1 [GT-17]	> 100 µM
Cc1c(CCN)ccc2c1[nH]c1ccccc12 [GT-6]	18.7 µM
O=C(OCc1ccccc1)c1cccnc1 [GT-16]	> 100 µM
O=C(NCCc1ccccc1)c1cccnc1 [GT-13]	> 100 µM
Clc1ccccc1C=Cc1ccnc2ccccc12 [GT-3]	15.4 µM
NCc1ccc(-c2ccccc2F)o1 [GT-19]	> 100 µM
O=C(NCc1cccnc1)C1CCNCC1 [GT-23]	> 100 µM
CC(N)c1ccc(-c2ccc(F)cc2)cc1 (stereo not shown) [GT-29]	35.7 µM
CCC(CO)Nc1nc2ccc(Cl)cc2c2ccccc12 (stereo not shown) [GT-10]	15.2 µM
Cc1cc(-c2ccccc2)nc(C#N)c1C#N [GT-27]	4 µM
N#CC(c1ccccc1)C(C(Cc1ccccc1)=NO)c1ccccc1 (stereo not shown) [GT-11]	13.3 µM

Each molecule was assayed on African green monkey kidney (Vero) cells (assay: MTT cytotoxicity, Vero cells). Details: Vero cells.
Format: cell-based
Description: as §1

SMILES	CC50
CC(CC(C#N)(c1ccccc1)c1ccccc1)N1CCCCC1 (stereo not shown) [GT-2]	> 100 µM
CC(NC(=O)c1cccnc1)c1ccccc1 (stereo not shown) [GT-18]	> 100 µM
NCc1cccc(-c2ccccn2)c1 [GT-24]	> 100 µM
O=C(NCCn1ccnc1)c1ccccn1 [GT-26]	> 100 µM
Cc1ccc(CC#N)c(-c2c(CC#N)ccc(C)c2C)c1C [GT-9]	> 100 µM
CC(O)(c1ccccc1)C(c1ccccc1)C1CCCCN1 (stereo not shown) [GT-4]	> 100 µM
NCc1cccc(Oc2ccccc2)c1 [GT-21]	49.6 µM
NCc1ccc(N2CCC(CO)CC2)cc1 [GT-17]	> 100 µM
Cc1c(CCN)ccc2c1[nH]c1ccccc12 [GT-6]	42.6 µM
O=C(OCc1ccccc1)c1cccnc1 [GT-16]	> 100 µM
O=C(NCCc1ccccc1)c1cccnc1 [GT-13]	> 100 µM
Clc1ccccc1C=Cc1ccnc2ccccc12 [GT-3]	27 µM
NCc1ccc(-c2ccccc2F)o1 [GT-19]	> 100 µM
O=C(NCc1cccnc1)C1CCNCC1 [GT-23]	> 100 µM
CC(N)c1ccc(-c2ccc(F)cc2)cc1 (stereo not shown) [GT-29]	21 µM
CCC(CO)Nc1nc2ccc(Cl)cc2c2ccccc12 (stereo not shown) [GT-10]	14.4 µM
Cc1cc(-c2ccccc2)nc(C#N)c1C#N [GT-27]	27.3 µM
N#CC(c1ccccc1)C(C(Cc1ccccc1)=NO)c1ccccc1 (stereo not shown) [GT-11]	18.9 µM

What follows are molecules tested on human liver carcinoma (HepG2) cells (assay: MTT cytotoxicity, HepG2 cells). Details: HepG2 cells.
Format: cell-based
Description: as §1

SMILES	CC50
CC(CC(C#N)(c1ccccc1)c1ccccc1)N1CCCCC1 (stereo not shown) [GT-2]	26.4 µM
CC(NC(=O)c1cccnc1)c1ccccc1 (stereo not shown) [GT-18]	> 100 µM
NCc1cccc(-c2ccccn2)c1 [GT-24]	> 100 µM
O=C(NCCn1ccnc1)c1ccccn1 [GT-26]	> 100 µM
Cc1ccc(CC#N)c(-c2c(CC#N)ccc(C)c2C)c1C [GT-9]	55.3 µM
CC(O)(c1ccccc1)C(c1ccccc1)C1CCCCN1 (stereo not shown) [GT-4]	> 100 µM
NCc1cccc(Oc2ccccc2)c1 [GT-21]	> 100 µM
NCc1ccc(N2CCC(CO)CC2)cc1 [GT-17]	> 100 µM
Cc1c(CCN)ccc2c1[nH]c1ccccc12 [GT-6]	14.9 µM
O=C(OCc1ccccc1)c1cccnc1 [GT-16]	> 100 µM
O=C(NCCc1ccccc1)c1cccnc1 [GT-13]	> 100 µM
Clc1ccccc1C=Cc1ccnc2ccccc12 [GT-3]	51.2 µM
NCc1ccc(-c2ccccc2F)o1 [GT-19]	> 100 µM
O=C(NCc1cccnc1)C1CCNCC1 [GT-23]	> 100 µM
CC(N)c1ccc(-c2ccc(F)cc2)cc1 (stereo not shown) [GT-29]	12.3 µM
CCC(CO)Nc1nc2ccc(Cl)cc2c2ccccc12 (stereo not shown) [GT-10]	12.9 µM
Cc1cc(-c2ccccc2)nc(C#N)c1C#N [GT-27]	41.7 µM
N#CC(c1ccccc1)C(C(Cc1ccccc1)=NO)c1ccccc1 (stereo not shown) [GT-11]	31.6 µM
